ChEMBL document CHEMBL1141443, “Antifibrotic phenanthrenes of Dendrobium nobile stems” (J Nat Prod, 2007)
“And” between values parts separate entries of the source, which are not always exact repeats. Equal values may be shown once.

Columns and labels:
[1] = Antiproliferative activity against rat HSC-T6 cells after 48 hrs by MTT assay; format: functional, cell-based
Hepatocyte = test: Cytotoxicity against rat hepatocytes at 10 to 100 uM; format: cell-based
[2] = Rattus norvegicus, HSC-T6, 48 h

SMILES: COc1ccc2c(ccc3cc(OC)c(O)c(OC)c32)c1
- IC50 [1, 2]: > 100 µM
- Activity (Hepatocyte): Non-toxic

SMILES: COc1ccc2c(c1)CCc1c(-c3c(O)c(OC)c(OC)c4c3CCc3cc(OC)ccc3-4)c(O)c(OC)c(OC)c1-2
- IC50 [1, 2]: 88.2 µM
- Activity (Hepatocyte): Non-toxic

SMILES: COc1cc(O)c2c(c1)CCc1cccc(O)c1-2
- IC50 [1, 2]: > 100 µM
- Activity (Hepatocyte): Non-toxic

SMILES: COc1ccc2c(ccc3cc(O)c(OC)c(OC)c32)c1O
- IC50 [1, 2]: 54.1 µM
- Activity (Hepatocyte): Non-toxic

SMILES: COc1ccc2c(c1O)CCc1cc(O)c(OC)c(OC)c1-2
- IC50 [1, 2]: 35.7 µM
- Activity (Hepatocyte): Non-toxic

SMILES: COc1cc2cc(O)c(O)c(OC)c2c2c(O)cccc12
- IC50 [1, 2]: 9 µM
- Activity (Hepatocyte): Non-toxic

SMILES: COc1ccc2c(c1)CCc1cc(OC)c(O)c(OC)c1-2
- IC50 [1, 2]: > 100 µM
- Activity (Hepatocyte): Non-toxic

SMILES: COc1ccc2c(c1)CCc1cc(O)c(OC)c(OC)c1-2
- IC50 [1, 2]: > 100 µM
- Activity (Hepatocyte): Non-toxic

SMILES: COc1c(O)cc2ccc3cccc(O)c3c2c1OC
- IC50 [1, 2]: > 100 µM
- Activity (Hepatocyte): Non-toxic

SMILES: COc1cc2ccc3cccc(O)c3c2c(OC)c1O [BULBOPHYLLANTHRIN]
- IC50 [1, 2]: 50.9 µM
- Activity (Hepatocyte): Non-toxic

SMILES: COc1ccc2c(c1)CCc1cc(O)cc(OC)c1-2 [COELONIN]
- IC50 ([1]; hsc-t6): 13.4 µM and 69.1 µM
- Activity (Hepatocyte): Non-toxic

SMILES: COC1=CC(=O)c2ccc3cc(OC)cc(O)c3c2C1=O [DENBINOBIN]
- IC50 [1, 2]: 15.2 µM
- Activity (Hepatocyte): Non-toxic

SMILES: COc1cc2c(c(O)c1OC)-c1ccc(O)cc1CC2 [EPHEMERANTHOL A]
- IC50 [1, 2]: 79.2 µM
- Activity (Hepatocyte): Non-toxic

SMILES: O=C(O[C@@H]1Cc2c(O)cc(O)cc2O[C@@H]1c1cc(O)c(O)c(O)c1)c1cc(O)c(O)c(O)c1 [EPIGALOCATECHIN GALLATE]
- IC50 [1, 2]: 9.9 µM

SMILES: COc1c(O)cc2c(c1OC)-c1ccc(O)cc1CC2 [ERIANTHRIDIN]
- IC50 [1, 2]: 73.2 µM
- Activity (Hepatocyte): Non-toxic

SMILES: COc1c(O)c(O)cc2ccc3cccc(O)c3c12 [FIMBRIOL B]
- IC50 [1, 2]: 11 µM
- Activity (Hepatocyte): Non-toxic

SMILES: COc1cc(O)c2c(c1)CCc1cc(O)ccc1-2 [LUSIANTHRIDIN]
- IC50 [1, 2]: 61.2 µM
- Activity (Hepatocyte): Non-toxic

SMILES: COc1c(O)cc2ccc3cc(O)ccc3c2c1OC [NUDOL]
- IC50 [1, 2]: > 100 µM
- Activity (Hepatocyte): Non-toxic

SMILES: COc1c(OC)c2cc(O)cc(OC)c2c2c(O)cccc12 [PLICATOL A]
- IC50 [1, 2]: > 100 µM
- Activity (Hepatocyte): Non-toxic
